Columns and labels:
[1] = molecular target: human recombinant dopamine D2 receptor (Homo sapiens (Human), UniProt P14416); experiment: Test of binding inhibition for the human dopamine D2 receptor ([3H]-Metylspiperone SPA binding); details: [3H]-Metylspiperone 1.2 nM, Jump-In HEK cell membranes, read-out: hD2_Ki
Method: Cell membranes: Jump-In HEK cell membranes expressing human recombinant dopamine D2 receptor (2 μg/well)
Buffer solution: 50 mM Tris-HCl (35409-45, Nacalai Tesque) (pH 7.4) containing 120 mM NaCl (31320-05, Nacalai Tesque), 1 mM MgCl2.6H2O (20909-55, Nacalai Tesque), 5 mM KCl (28514-75, Nacalai Tesque) and 2 mM CaCl2 (067-31, Nacalai Chemical, Ltd)
Radioligand: (final concentration) 1.2 nM [^3H]-Metylspiperone ([^3H—N-methyl-]-Metylspiperone, NET-856, 83.8 Ci/mmol, PerkinElmer)
(§1) Non-specific ligand: (final concentration) 10 μM Butaclamol [(+)-Butaclamol Hydrochioride, D033, Sigma]
(§2) SPA beads: SPA beads [WGA PVT SPA Scintillatiion Beads, RPNQ0001 (500 mg), RPNQ0060 (2 g), PerkinElmer] (0.2 mg/well)
(§3) Incubation time and temperature: 120 min at 25° C.
(§4) Butaclamol or the compounds of the present invention were weighed and DMSO was added to make a 10 mM solution. This solution was diluted to each concentration.
[^3H]-Metylspiperone was weighed and the buffer solution was added to make a 3.6 nM solution.
(§5) SPA beads were weighed and stirred in water to make a 50 mg/mL solution. Using this solution, a mixed solution with the cell membranes was prepared.
225 nL of the solutions of the non-specific ligand or the compounds of the present invention at each concentration (in case of vehicle, final concentration 0.3% DMSO) were added in each well of a 384-well white/clear bottom microplate (3706, Corning). Jump-In HEK Cell membranes (final reaction amount: 2 μg protein/well), SPA beads (final reaction amount: 0.2 mg/well) and the buffer were mixed and the mixed solution was left still for more than or equal to 1 h at 4° C. Then, 50 μL of the mixture was added to each well of the plate. In addition, 25 μL of 3.6 nM [^3H]-Metylspiperone (final concentration: 1.2 nM) was added to each well. The plate was sealed by putting TopSeal-A 96/384 well (6050185, PerkinElmer) on the top of the plate, mixed using stirring deaerator (Welltornado, FK-62, Sakaki) and incubated for 120 min at 25° C. After incubation, the radioactivity of [^3H]-Metylspiperone which was binded to D2 receptor was determined by liquid scintillation counter (1450 Microbeta, PerkinElmer) in each well. Non-specific binding was calculated based on the radioactivity of [^3H]-Metylspiperone in the presence of 10 μM non-labeled Butaclamol. The total binding was calculated using the radioactivity of [^3H]-Metylspiperone in the absence of the compounds of the present invention (Vehicle). The Ki values were calculated from dose-response curves.
(§6) Binding activities of the compounds of the present invention were calculated from the following Binding Inhibition Rate (%): Inhibition Rate (%)=[1−(c−a)(b−a)]×100(%) • a: Average cpm of non-specific binding • b: Average cpm of total binding • c: Cpm in the presence of each test compound

[2] = molecular target: human recombinant dopamine D3 receptor (Homo sapiens (Human), UniProt P35462); experiment: Test of binding inhibition for the human dopamine D3 receptor ([3H]-Metylspiperone SPA binding); details: [3H]-Metylspiperone 2 nM, Jump-In HEK cell membranes, read-out: hD3_Ki
Sequence of human recombinant dopamine D3 receptor (P35462 whole entry): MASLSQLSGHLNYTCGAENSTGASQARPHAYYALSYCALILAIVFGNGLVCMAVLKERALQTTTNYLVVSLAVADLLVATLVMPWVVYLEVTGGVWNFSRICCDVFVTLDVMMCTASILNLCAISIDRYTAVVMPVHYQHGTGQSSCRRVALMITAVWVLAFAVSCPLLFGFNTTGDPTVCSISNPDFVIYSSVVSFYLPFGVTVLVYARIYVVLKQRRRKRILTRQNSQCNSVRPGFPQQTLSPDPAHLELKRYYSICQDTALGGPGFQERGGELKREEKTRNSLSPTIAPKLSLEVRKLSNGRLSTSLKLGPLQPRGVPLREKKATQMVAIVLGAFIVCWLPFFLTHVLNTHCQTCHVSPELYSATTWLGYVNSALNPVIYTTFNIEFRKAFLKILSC
Method: Cell membranes: Jump-In HEK cell membranes expressing human recombinant dopamine D3 receptor (4 μg/well)
as §1, §2, §3, §4
[^3H]-Metylspiperone was weighed and the buffer solution was added to make a 6 nM solution.
as §5
Jump-In HEK Cell membranes (final reaction amount: 4 μg/well), SPA beads (final reaction amount: 0.2 mg/well) and Tris-HCl buffer were mixed and the mixed solution was left still for more than 60 min at 4° C. Then, 50 μL of the mixture was added to each well of the plate. In addition, 25 μL of 6 nM [^3H]-Metylspiperone (final concentration: 2 nM) was added to each well. […] Non-specific binding was calculated based on the radioactivity of [^3H]-Metylspiperone in the presence of 10 μM non-labeled Butaclamol. The total binding was calculated based on the radioactivity of [^3H]-Metylspiperone in the absence of the compounds of the present invention (Vehicle). The Ki values were calculated from dose-response curves.
as §6

Sequence of human recombinant dopamine D2 receptor (P14416 whole entry): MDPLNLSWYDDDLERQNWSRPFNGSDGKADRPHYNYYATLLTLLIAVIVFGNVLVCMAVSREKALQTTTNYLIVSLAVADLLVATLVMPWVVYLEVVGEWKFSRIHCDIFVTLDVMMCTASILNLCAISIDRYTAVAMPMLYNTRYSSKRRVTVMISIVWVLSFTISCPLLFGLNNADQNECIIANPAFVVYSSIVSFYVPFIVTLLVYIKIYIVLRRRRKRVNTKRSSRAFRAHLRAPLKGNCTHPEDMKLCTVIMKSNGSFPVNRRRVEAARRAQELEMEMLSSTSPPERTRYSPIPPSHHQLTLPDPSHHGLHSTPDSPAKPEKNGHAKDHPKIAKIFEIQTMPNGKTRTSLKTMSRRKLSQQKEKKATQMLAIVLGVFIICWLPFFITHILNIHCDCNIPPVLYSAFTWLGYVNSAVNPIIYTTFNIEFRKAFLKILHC

Structure (SMILES) | Ki [1] [nM] | Ki [2] [nM]
Cn1cc2c(C(=O)N[C@H]3CC[C@H](CCN4CCc5nc(OCC(F)F)sc5CC4)CC3)cccc2n1 [II-026] | > 1700 | 0.2
O=C(N[C@H]1CC[C@H](CCN2CCc3sc(OCC(F)(F)F)nc3C2)OC1)c1cccc2ncccc12 [Compound I-142] | 650 | 0.72
Cc1ncc(CC(=O)N[C@H]2CC[C@](F)(CCN3CCc4nc(OCC(C)(F)F)sc4CC3)CC2)s1 [II-070] | 820 | 0.44
Cc1ncc(CC(=O)N[C@H]2CC[C@H](CCN3CCc4cn(CCC(F)(F)F)nc4CC3)CC2)s1 [II-088] | > 1900 | 7.4
CC(=O)N[C@H]1CC[C@H](CCN2CCc3nc(OCC(C)(F)F)sc3CC2)CC1 [II-014] | 230 | 0.45
O=C(N[C@H]1C[C@@H]2[C@@H](CCN3CCc4sc(OCC(F)F)nc4C3)[C@@H]2C1)c1cccc2ncccc12 [Compound I-124] | 860 | 0.91
Cc1ncc(/C=C/C(=O)N[C@H]2CC[C@H](CCN3CCc4nc(OCC(F)(F)F)sc4CC3)CC2)cn1 [II-048] | > 1700 | 0.82
Cc1ncc(CC(=O)N[C@H]2CC[C@H](CCN3CCc4ccc(OCC(F)F)nc4CC3)CC2)s1 [II-005] | 430 | 0.085
Cc1ncc(CC(=O)N[C@H]2CC[C@H](CCN3CCc4ccc(N5CC(F)(F)C5)nc4CC3)CC2)s1 [II-066] | > 1900 | 0.84
O=C(N[C@H]1CC[C@H](CCN2CCc3nc(-c4ccccc4)sc3C2)CC1)c1cccc2ncccc12 [Compound I-018] | > 1700 | 12
Cc1ncc(CC(=O)N[C@H]2CC[C@H](CCN3CCc4nc(OCC(F)(F)F)sc4CC3)CC2)o1 [II-085] | 740 | 0.096
O=C(N[C@H]1CC[C@H](CCN2CCc3sc(Br)nc3C2)CC1)c1cccc2ncccc12 [Compound I-003] | > 1900 | 2.6
Cn1cc(CC(=O)N[C@H]2CC[C@H](CCN3CCc4sc(OCC(F)F)nc4C3)CC2)cn1 [Compound I-108] | 1400 | 1.5
O=C(N[C@H]1CC[C@H](CCN2CCc3cn(Cc4ccccc4)nc3C2)CC1)c1cccc2ncccc12 [Compound I-113] | > 1700 | 4.7
O=C(N[C@H]1CC[C@H](CCN2CCc3sc(Cc4ccccc4)nc3C2)CC1)c1cccc2ncccc12 [Compound I-014] | > 1700 | 1.3
Cc1cc(CC(=O)N[C@H]2CC[C@H](CCN3CCc4nc(OCC(F)F)sc4CC3)CC2)no1 [III-282] | – | 0.82
Cc1ncc(CC(=O)N[C@H]2CC[C@H](CCN3CCc4nc(OCC(F)(F)F)sc4CC3)CC2)s1 [II-053] | 730 | –
Cc1ncc(CC(=O)N[C@H]2CC[C@H](CCN3CCc4nc(N(C)CC(F)(F)F)sc4CC3)CC2)s1 [II-084] | 510 | –

Results, then the compound that gave them:

Ki [1] [nM] | Ki [2] [nM] | Structure (SMILES)
1400 | 0.79 | Cc1ncc(CC(=O)N[C@H]2CC[C@H](CCN3CCc4ccc(OCC(C)F)nc4CC3)CC2)s1 (stereo partly drawn) [III-203]
570 | 0.78 | Cc1nnc(CC(=O)N[C@H]2CC[C@H](CCN3CCc4nc(OCC(F)F)sc4CC3)CC2)o1 [III-273]
610 | 0.44 | Cc1ncccc1C(=O)N[C@H]1CC[C@H](CCN2CCc3sc(OCC(F)(F)F)nc3C2)CC1 [III-603]
830 | 0.46 | Cn1ncc(CC(=O)N[C@H]2CC[C@H](CCN3CCc4sc(OCC(C)(F)F)nc4C3)CC2)c1F [III-548]
1100 | 0.6 | Cn1cc2ccc(C(=O)N[C@H]3CC[C@H](CCN4CCc5nc(OCC(F)F)sc5CC4)CC3)cc2n1 [III-270]
> 1900 | 0.16 | Cn1ccc2c(C(=O)N[C@H]3CC[C@H](CCN4CCc5sc(OCC(C)(F)F)nc5C4)CC3)cccc2c1=O [III-630]
290 | 0.051 | Cc1nc(/C=C/C(=O)N[C@H]2CC[C@H](CCN3CCc4sc(N5CC(F)(F)C5)nc4C3)CC2)cs1 [III-706]
1500 | 9.6 | O=C(N[C@H]1CO[C@H](CCN2CCc3sc(OCC(F)(F)F)nc3C2)OC1)OCc1ccccc1 [III-659]
> 1700 | 0.91 | CC(CF)Oc1nc2c(s1)CCN(CC[C@H]1CC[C@H](NC(=O)c3cccc4nn(C)cc34)CC1)CC2 (stereo partly drawn) [III-159]
> 1800 | 0.15 | Cc1cnc(CC(=O)N[C@H]2CC[C@](F)(CCN3CCc4nc(OCC(F)(F)F)sc4CC3)CC2)o1 [III-266]
850 | 0.44 | Cn1cc(CC(=O)N[C@H]2CC[C@H](CCN3CCc4sc(OC5CCC(F)(F)C5)nc4C3)CC2)cn1 (stereo partly drawn) [III-484]
500 | 0.11 | O=C1Cc2cccc(C(=O)N[C@H]3CC[C@H](CCN4CCc5nc(OCC(F)F)sc5CC4)CC3)c2N1 [III-280]
610 | 0.58 | Cc1nnc(CC(=O)N[C@H]2CC[C@](F)(CCN3CCc4nc(OCC(F)(F)F)sc4CC3)CC2)o1 [III-253]
650 | 0.68 | Cn1cc(OCC(=O)N[C@H]2CC[C@H](CCN3CCc4nc(OCC(F)(F)F)sc4CC3)OC2)cn1 [III-175]
330 | – | Cn1cc2c(C(=O)N[C@H]3CC[C@H](CCN4CCc5ccc(OCC(C)(F)F)nc5CC4)CC3)cccc2n1 [III-027]
460 | 0.72 | Cc1nc(CC(=O)N[C@H]2CC[C@H](CCN3CCc4nc(OCC(F)(F)F)sc4CC3)OC2)no1 [III-180]
920 | 0.37 | Cn1cc2c(C(=O)N[C@H]3CC[C@H](CCN4CCc5sc(CCC(C)(F)F)nc5C4)CC3)cccc2n1 [III-642]
> 1700 | 1.3 | Cc1ncc(CC(=O)N[C@H]2CC[C@H](C(F)CN3CCc4ccc(OCC(F)(F)F)nc4CC3)CC2)s1 (stereo partly drawn) [III-216]
> 1800 | 1.2 | Cn1cc(CC(=O)N[C@H]2CC[C@H](CCN3CCc4sc(COC(F)(F)F)nc4C3)CC2)cn1 [III-622]
560 | 0.22 | Cc1ncc(CC(=O)N[C@H]2CC[C@](F)(CCN3CCc4nc(OCC(F)(F)F)sc4CC3)CC2)o1 [III-262]
400 | 0.092 | Cn1cc2c(C(=O)NC3CC4(CC(CCN5CCc6sc(OCC(C)(F)F)nc6C5)C4)C3)cccc2n1 (single isomer, unassigned) [III-624]
> 1700 | 0.34 | Cn1cc2c(C(=O)N[C@H]3CC[C@H](CCN4CCc5nc(O[C@H]6C[C@H](F)C6)sc5CC4)CC3)cccc2n1 [III-158]
> 1800 | 0.25 | Cc1nc(CC(=O)N[C@H]2CC[C@](F)(CCN3CCc4nc(OCC(F)(F)F)sc4CC3)CC2)no1 [III-264]
– | 0.14 | Cc1nc(CC(=O)N[C@H]2CC[C@H](CCN3CCc4ccc(OCC(C)(F)F)nc4CC3)CC2)no1 [III-019]
– | 0.2 | Cn1cc(CC(=O)N[C@H]2CC[C@H](CCN3CCc4nc(OCC(F)(F)F)sc4CC3)CC2)cn1 [III-037]
– | 0.2 | COc1cc(CC(=O)N[C@H]2CC[C@H](CCN3CCc4nc(OCC(F)(F)F)sc4CC3)OC2)on1 [III-199]
– | 0.56 | Cc1ncccc1C(=O)N[C@H]1CC[C@H](CCN2CCc3nc(OCC(F)(F)F)sc3CC2)OC1 [III-182]
> 1700 | – | COc1cc(CC(=O)N[C@H]2CC[C@H](CCN3CCc4sc(N5CC(F)(F)C5)nc4C3)CC2)on1 [III-578]
810 | – | Cc1cc(OCC(=O)N[C@H]2CC[C@H](CCN3CCc4sc(N5CC(F)(F)C5)nc4C3)CC2)no1 [III-581]

Source: patent US10870660B2, “Nitrogen-containing condensed ring compounds having dopamine D3 antagonistic effect” (Shionogi & Co., Ltd., priority 2016, dated 2020)
